Measurements from ChEMBL document CHEMBL5236651, “Synthesis and antibacterial activity of novel 2‑fluoro ketolide antibiotics with 11,12‑quinoylalkyl side chains” (2023).
Converted amounts (≈) assume the structure as drawn.

Legend:
Assay type in all cases: functional
[1] = system: Klebsiella pneumoniae; assay: Antibacterial activity against ESBL positive Klebsiella pneumoniae ATCC 700603 assessed as inhibition of bacterial growth by CLSI based micro broth double dilution method
[2] = system: Klebsiella pneumoniae; assay: Antibacterial activity against ESBL negative Klebsiella pneumoniae 7 assessed as inhibition of bacterial growth by CLSI based micro broth double dilution method
[3] = system: Klebsiella pneumoniae; assay: Antibacterial activity against ESBL negative Klebsiella pneumoniae 16-2 assessed as inhibition of bacterial growth by CLSI based micro broth double dilution method
[4] = system: Streptococcus pyogenes; assay: Antibacterial activity against erythromycin-sensitive Streptococcus pyogenes ATCC 19615 assessed as inhibition of bacterial growth by CLSI based micro broth double dilution method
[5] = system: Streptococcus pyogenes; assay: Antibacterial activity against erythromycin-resistant Streptococcus pyogenes 12-1 assessed as inhibition of bacterial growth by CLSI based micro broth double dilution method
[6] = system: Enterococcus faecalis; assay: Antibacterial activity against vancomycin-sensitive Enterococcus faecalis […] assessed as inhibition of bacterial growth by CLSI based micro broth double dilution method
[7] = system: Enterococcus faecalis; assay: Antibacterial activity against vancomycin-sensitive Enterococcus faecalis 16-6 assessed as inhibition of bacterial growth by CLSI based micro broth double dilution method
[8] = system: Enterococcus faecalis; assay: Antibacterial activity against vancomycin-resistant Enterococcus faecalis ATCC 51575 assessed as inhibition of bacterial growth by CLSI based micro broth double dilution method
[9] = system: Enterococcus faecalis; assay: Antibacterial activity against vancomycin-resistant Enterococcus faecalis ATCC 51299 assessed as inhibition of bacterial growth by CLSI based micro broth double dilution method
[10] = system: Streptococcus pneumoniae; assay: Antibacterial activity against erythromycin-sensitive Streptococcus pneumoniae ATCC 49619 assessed as inhibition of bacterial growth by CLSI based micro broth double dilution method
[11] = system: Streptococcus pneumoniae; assay: Antibacterial activity against erythromycin-resistant Streptococcus pneumoniae 12-3 assessed as inhibition of bacterial growth by CLSI based micro broth double dilution method
[12] = system: Escherichia coli; assay: Antibacterial activity against ESBL-negative Escherichia coli ATCC 25922 assessed as inhibition of bacterial growth by CLSI based micro broth double dilution method
[13] = system: Escherichia coli; assay: Antibacterial activity against Escherichia coli 16-7 assessed as inhibition of bacterial growth by CLSI based micro broth double dilution method
[14] = system: Escherichia coli; assay: Antibacterial activity against ESBL-positive Escherichia coli ATCC 35218 assessed as inhibition of bacterial growth by CLSI based micro broth double dilution method
[15] = system: Staphylococcus epidermidis; assay: Antibacterial activity against methicillin-sensitive Staphylococcus epidermidis ATCC 12228 assessed as inhibition of bacterial growth by CLSI based micro broth double dilution method
[16] = system: Staphylococcus epidermidis; assay: Antibacterial activity against methicillin-sensitive Staphylococcus epidermidis 16-4 assessed as inhibition of bacterial growth by CLSI based micro broth double dilution method
[17] = system: Staphylococcus aureus; assay: Antibacterial activity against methicillin-sensitive Staphylococcus aureus ATCC 29213 assessed as inhibition of bacterial growth by CLSI based micro broth double dilution method
[18] = system: Staphylococcus aureus; assay: Antibacterial activity against methicillin-sensitive Staphylococcus aureus 15 assessed as inhibition of bacterial growth by CLSI based micro broth double dilution method
[19] = system: Staphylococcus aureus; assay: Antibacterial activity against methicillin-sensitive Staphylococcus aureus 16-1 assessed as inhibition of bacterial growth by CLSI based micro broth double dilution method
[20] = system: Pseudomonas aeruginosa; assay: Antibacterial activity against Pseudomonas aeruginosa ATCC 27853 assessed as inhibition of bacterial growth by CLSI based micro broth double dilution method
[21] = system: Pseudomonas aeruginosa; assay: Antibacterial activity against Pseudomonas aeruginosa PAO1 assessed as inhibition of bacterial growth by CLSI based micro broth double dilution method
[22] = system: Pseudomonas aeruginosa; assay: Antibacterial activity against Pseudomonas aeruginosa 16-11 assessed as inhibition of bacterial growth by CLSI based micro broth double dilution method
[23] = system: Streptococcus pyogenes; assay: Potency index, ratio of telithromycin MIC to test compound MIC for antibacterial activity against erythromycin-resistant Streptococcus pyogenes 12-1 assessed as inhibition of bacterial growth by CLSI based micro broth double dilution method
[24] = system: Streptococcus pneumoniae; assay: Potency index, ratio of telithromycin MIC to test compound MIC for antibacterial activity against erythromycin-resistant Streptococcus pneumoniae 12-3 assessed as inhibition of bacterial growth by CLSI based micro broth double dilution method

| Structure (SMILES) | MIC [1] [µg/mL] | MIC [2] [µg/mL] | MIC [3] [µg/mL] | MIC [4] [µg/mL] | MIC [5] [µg/mL] | MIC [6] [µg/mL] | MIC [7] [µg/mL] | MIC [8] [µg/mL] | MIC [9] [µg/mL] | MIC [10] [µg/mL] | MIC [11] [µg/mL] | MIC [12] [µg/mL] | MIC [13] [µg/mL] | MIC [14] [µg/mL] | MIC [15] [µg/mL] | MIC [16] [µg/mL] | MIC [17] [µg/mL] | MIC [18] [µg/mL] | MIC [19] [µg/mL] | MIC [20] [µg/mL] | further results |
| --- | --- | --- | --- | --- | --- | --- | --- | --- | --- | --- | --- | --- | --- | --- | --- | --- | --- | --- | --- | --- | --- |
| CCCCN(CCCN1C(=O)O[C@]2(C)[C@@H](CC)OC(=O)[C@@](C)(F)C(=O)[C@H](C)[C@@H](O[C@@H]3O[C@H](C)C[C@H](N(C)C)[C@H]3O)[C@@](C)(OC)C[C@@H](C)C(=O)[C@H](C)[C@@H]12)c1ccnc2ccccc12 | 32 (≈ 36.7 µM) | > 32 | > 32 | 0.015 (≈ 0.0172 µM) | 2 (≈ 2.3 µM) | 0.03 (≈ 0.0344 µM) | 2 (≈ 2.3 µM) | 1 (≈ 1.15 µM) | 1 (≈ 1.15 µM) | ≤ 0.016 | ≤ 0.016 | 32 (≈ 36.7 µM) | 32 (≈ 36.7 µM) | 32 (≈ 36.7 µM) | 0.12 (≈ 0.138 µM) | 0.25 (≈ 0.287 µM) | 1 (≈ 1.15 µM) | 0.06 (≈ 0.0689 µM) | 0.12 (≈ 0.138 µM) | 32 (≈ 36.7 µM) | MIC [21]: 16 µg/mL (≈ 18.4 µM); MIC [22]: 16 µg/mL (≈ 18.4 µM); Ratio [23]: 32; Ratio [24]: 4 |
| CC[C@H]1OC(=O)[C@@](C)(F)C(=O)[C@H](C)[C@@H](O[C@@H]2O[C@H](C)C[C@H](N(C)C)[C@H]2O)[C@@](C)(OC)C[C@@H](C)C(=O)[C@H](C)[C@H]2N(CCCNc3cnc4ccccc4c3)C(=O)O[C@]12C | > 32 | > 32 | > 32 | 0.12 (≈ 0.147 µM) | 32 (≈ 39.3 µM) | 0.06 (≈ 0.0736 µM) | > 32 | > 32 | > 32 | ≤ 0.016 | ≤ 0.016 | 16 (≈ 19.6 µM) | 32 (≈ 39.3 µM) | 32 (≈ 39.3 µM) | 0.12 (≈ 0.147 µM) | 0.12 (≈ 0.147 µM) | 0.12 (≈ 0.147 µM) | 0.12 (≈ 0.147 µM) | 0.12 (≈ 0.147 µM) | 32 (≈ 39.3 µM) | MIC [21]: 16 µg/mL (≈ 19.6 µM); MIC [22]: 32 µg/mL (≈ 39.3 µM) |
| CC[C@H]1OC(=O)[C@@](C)(F)C(=O)[C@H](C)[C@@H](O[C@@H]2O[C@H](C)C[C@H](N(C)C)[C@H]2O)[C@@](C)(OC)C[C@@H](C)C(=O)[C@H](C)[C@H]2N(CCCN(C)c3ccnc4ccccc34)C(=O)O[C@]12C | > 32 | > 32 | > 32 | 0.03 (≈ 0.0362 µM) | > 32 | 0.25 (≈ 0.302 µM) | > 32 | > 32 | > 32 | 0.03 (≈ 0.0362 µM) | 0.12 (≈ 0.145 µM) | > 32 | > 32 | > 32 | 0.25 (≈ 0.302 µM) | 2 (≈ 2.41 µM) | 0.5 (≈ 0.603 µM) | 0.5 (≈ 0.603 µM) | 0.5 (≈ 0.603 µM) | > 32 | MIC [21]: > 32 µg/mL; MIC [22]: > 32 µg/mL |
| CC[C@H]1OC(=O)[C@@](C)(F)C(=O)[C@H](C)[C@@H](O[C@@H]2O[C@H](C)C[C@H](N(C)C)[C@H]2O)[C@@](C)(OC)C[C@@H](C)C(=O)[C@H](C)[C@H]2N(CCCN(Cc3ccccc3)c3cnc4ccccc4c3)C(=O)O[C@]12C | 32 (≈ 35.4 µM) | 8 (≈ 8.84 µM) | > 32 | 0.12 (≈ 0.133 µM) | 8 (≈ 8.84 µM) | 0.5 (≈ 0.552 µM) | > 32 | > 32 | > 32 | 0.03 (≈ 0.0331 µM) | 0.25 (≈ 0.276 µM) | > 32 | > 32 | > 32 | 0.25 (≈ 0.276 µM) | 1 (≈ 1.1 µM) | 1 (≈ 1.1 µM) | 0.5 (≈ 0.552 µM) | 0.5 (≈ 0.552 µM) | > 32 | MIC [21]: > 32 µg/mL; MIC [22]: > 32 µg/mL |
| CC[C@H]1OC(=O)[C@@](C)(F)C(=O)[C@H](C)[C@@H](O[C@@H]2O[C@H](C)C[C@H](N(C)C)[C@H]2O)[C@@](C)(OC)C[C@@H](C)C(=O)[C@H](C)[C@H]2N(CCCN(C(=O)c3ccccc3)c3ccnc4ccccc34)C(=O)O[C@]12C | > 32 | > 32 | > 32 | 0.12 (≈ 0.131 µM) | > 32 | 0.25 (≈ 0.272 µM) | > 32 | > 32 | > 32 | ≤ 0.016 | 0.06 (≈ 0.0653 µM) | > 32 | > 32 | > 32 | 1 (≈ 1.09 µM) | 1 (≈ 1.09 µM) | 1 (≈ 1.09 µM) | 1 (≈ 1.09 µM) | 0.5 (≈ 0.544 µM) | > 32 | MIC [21]: > 32 µg/mL; MIC [22]: > 32 µg/mL |
| CC[C@H]1OC(=O)[C@H](C)C(=O)[C@H](C)[C@@H](O[C@@H]2O[C@H](C)C[C@H](N(C)C)[C@H]2O)[C@](C)(OC)C[C@@H](C)C(=O)[C@H](C)[C@H]2N(CCCCn3cnc(-c4cccnc4)c3)C(=O)O[C@]12C [TELITHROMYCIN] | > 64 | > 64 | > 64 | 0.06 (≈ 0.0739 µM) | 64 (≈ 78.8 µM) | 0.12 (≈ 0.148 µM) | 16 (≈ 19.7 µM) | 16 (≈ 19.7 µM) | 16 (≈ 19.7 µM) | 0.03 (≈ 0.0369 µM) | 0.06 (≈ 0.0739 µM) | 64 (≈ 78.8 µM) | > 64 | > 64 | 0.25 (≈ 0.308 µM) | 1 (≈ 1.23 µM) | 0.25 (≈ 0.308 µM) | 0.25 (≈ 0.308 µM) | 0.25 (≈ 0.308 µM) | > 64 | MIC [21]: > 64 µg/mL; MIC [22]: > 64 µg/mL |
| CC[C@H]1OC(=O)[C@@](C)(F)C(=O)[C@H](C)[C@@H](O[C@@H]2O[C@H](C)C[C@H](N(C)C)[C@H]2O)[C@@](C)(OC)C[C@@H](C)C(=O)[C@H](C)[C@H]2N(CCCNc3ccnc4ccccc34)C(=O)O[C@]12C | 32 (≈ 39.3 µM) | 8 (≈ 9.82 µM) | 16 (≈ 19.6 µM) | 0.06 (≈ 0.0736 µM) | > 32 | 0.12 (≈ 0.147 µM) | > 32 | > 32 | > 32 | ≤ 0.016 | 0.06 (≈ 0.0736 µM) | 4 (≈ 4.91 µM) | 8 (≈ 9.82 µM) | 8 (≈ 9.82 µM) | 0.06 (≈ 0.0736 µM) | 0.25 (≈ 0.307 µM) | 0.12 (≈ 0.147 µM) | 0.12 (≈ 0.147 µM) | 0.12 (≈ 0.147 µM) | > 32 | MIC [21]: > 32 µg/mL; MIC [22]: > 32 µg/mL |
